Measured values taken from US20260109707A1, “HETEROBIFUNCTIONAL COMPOUNDS AND METHODS OF TREATING DISEASE” (Halda Therapeutics OpCo. Inc., priority 2022, published 2026).
Read-outs that look alike come from different tables or passages of the source.

Key:
[1] = system: T-Rex 293 cell line SC3 cells lacking increased expression of androgen receptor protein; test: Cellular growth inhibition assay, T-Rex 293 SC3 cells without doxycycline (CellTiter-Glo, 72 hours); assay type: cell-based; conditions: T-Rex 293 cell line SC3 cells not exposed to doxycycline (lacking increased androgen receptor expression)
In short: (§1)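 Growth inhibition is measured in an inducible AR-expressing T-Rex 293 clone, SC3, cultured with or without 10 ng/mL doxycycline in hormone-depleted medium. Test compounds are applied for 72 hours. GI50 values derive from CellTiter-Glo 2.0 signal fitted by four-parameter regression.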

[2] = system: T-Rex 293 cell line SC3 cells having increased expression of androgen receptor protein due to exposure to doxycycline; test: Cellular growth inhibition assay, T-Rex 293 SC3 cells with doxycycline (CellTiter-Glo, 72 hours); assay type: cell-based; conditions: T-Rex 293 SC3 cells with increased androgen receptor expression due to doxycycline (10 ng/mL)
In short: as §1

T47D cells = test: Cellular growth inhibition assay for T47D cells (CellTiter-Glo, 72 hours); assay type: cell-based, human; conditions: 72 hours treatment
In short: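 Growth inhibition as GI50, fitted with four parameters to CellTiter-Glo luminescence after 72 h of compound exposure (0.5% DMSO). Cells were T47D, grown in insulin-supplemented (0.2 units/mL) DMEM with 10% FBS and treated one day post-seeding.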

VCaP cells = test: Cellular growth inhibition assay for VCaP cells (CellTiter-Glo, 72 hours); assay type: cell-based, human
In short: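 Luminescent viability signal after 72 h of compound exposure gave GI50 values by four-parameter nonlinear regression. Compounds were added in 0.5% DMSO to cells plated 24 h earlier at 5000/well in DMEM containing 10% FBS.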

Row | GI50 (T47D cells; Homo sapiens, T47D, 72 h) [µM] | GI50 (VCaP cells; Homo sapiens, VCaP, 72 h) [µM] | GI50 (T47D cells) [µM] | GI50 (VCaP cells) [µM] | SMILES | GI50 ([1]; 72 h) [µM] | GI50 ([2]; 72 h) [µM] | GI50 [1] [µM] | GI50 [2] [µM]
1 | < 0.5 | < 0.5 |  |  | Cc1sc2c(c1C)C(c1ccc(CCCN3CCCN(c4ccc(C(=O)N[C@H]5CC[C@H](Oc6ccc(C#N)c(Cl)c6)CC5)nn4)CC3)cc1)=N[C@@H](Cc1ncco1)c1nnc(C)n1-2 [I-126] | < 0.5 | < 0.5 |  | 
2 | 0.5 to 1.5 | < 0.5 |  |  | Cc1sc2c(c1C)C(c1ccc(O[C@H]3CC[C@@]4(CCCN(c5ccc(C(=O)N[C@H]6CC[C@H](Oc7ccc(C#N)c(Cl)c7)CC6)nn5)C4)C3)cn1)=N[C@@H](Cc1ncco1)c1nnc(C)n1-2 [I-361] | > 3 | < 0.5 |  | 
3 | > 3 | > 3 |  |  | Cc1sc2c(c1C)C(c1ccc(C[C@H]3C[C@]4(CCCN(c5ccc(C(=O)N[C@H]6CC[C@H](Oc7ccc(C#N)c(Cl)c7)CC6)nn5)C4)C3)nc1)=N[C@H](Cc1ncco1)c1nnc(C)n1-2 [I-384] | > 3 | > 3 |  | 
4 | > 3 | > 3 |  |  | Cc1sc2c(c1C)C(c1ccc(C(=O)N3CCN(Cc4ccc(C(=O)N[C@H]5CC[C@H](Oc6ccc(C#N)c(Cl)c6)CC5)nn4)CC3)cc1)=N[C@H](Cc1ncco1)c1nnc(C)n1-2 [I-291] | > 3 | < 0.5 |  | 
5 |  |  | < 0.5 | < 0.5 | Cc1sc2c(c1C)C(c1ccc(N3CCC(CNC(=O)c4ccc(C(=O)N[C@H]5CC[C@H](Oc6ccc(C#N)c(Cl)c6)CC5)nn4)CC3)cc1)=N[C@@H](Cc1ncco1)c1nnc(C)n1-2 [I-232] |  |  | 0.5 to 1.5 | < 0.5
6 | < 0.5 | < 0.5 |  |  | Cc1sc2c(c1C)C(c1ccc(C#CCN3[C@H](C)CN(c4ccc(C(=O)N[C@H]5CC[C@H](Oc6ccc(C#N)c(Cl)c6)CC5)nn4)C[C@@H]3C)cc1)=N[C@@H](Cc1ncco1)c1nnc(C)n1-2 [I-140] | < 0.5 | < 0.5 |  | 
7 | < 0.5 | < 0.5 |  |  | Cc1sc2c(c1C)C(c1ccc(C3CC3C3CC4(CCN(c5ccc(C(=O)N[C@H]6CC[C@H](Oc7ccc(C#N)c(Cl)c7)CC6)nn5)CC4)C3)cc1)=N[C@@H](Cc1ncco1)c1nnc(C)n1-2 (stereo partly drawn) [I-200] | < 0.5 | < 0.5 |  | 
8 | < 0.5 | < 0.5 |  |  | Cc1sc2c(c1C)C(c1ccc(CC(=O)N3CCN(c4ccc(C(=O)N[C@H]5CC[C@H](Oc6ccc(C#N)c(Cl)c6)CC5)nn4)CC3)cc1)=N[C@@H](Cc1ncco1)c1nnc(C)n1-2 [I-319] | > 3 | < 0.5 |  | 
9 | < 0.5 | < 0.5 |  |  | Cc1sc2c(c1C)C(c1ccc(CC[C@H]3CCCN(c4ccc(C(=O)N[C@H]5CC[C@H](Oc6ccc(C#N)c(Cl)c6)CC5)nn4)C3)cc1)=N[C@@H](Cc1ncco1)c1nnc(C)n1-2 [I-254] | < 0.5 | < 0.5 |  | 
10 | 0.5 to 1.5 | < 0.5 |  |  | Cc1sc2c(c1C)C(c1ccc(OC3CC4(CCN(c5ccc(C(=O)N[C@H]6CC[C@H](Oc7ccc(C#N)c(Cl)c7)CC6)nn5)CC4)C3)nc1)=N[C@@H](Cc1ncco1)c1nnc(C)n1-2 [I-223] | 0.5 to 1.5 | < 0.5 |  | 
11 | < 0.5 | < 0.5 |  |  | Cc1sc2c(c1C)C(c1ccc(OC[C@H]3C[C@]4(CCCN(c5ccc(C(=O)N[C@H]6CC[C@H](Oc7ccc(C#N)c(Cl)c7)CC6)nn5)C4)C3)cn1)=N[C@@H](Cc1ncco1)c1nnc(C)n1-2 [I-339] | < 0.5 | < 0.5 |  | 
12 | 0.5 to 1.5 | < 0.5 |  |  | Cc1sc2c(c1C)C(c1ccc(CNC(=O)CNC(=O)c3ccc(C(=O)N[C@H]4CC[C@H](Oc5ccc(C#N)c(Cl)c5)CC4)nn3)cc1)=N[C@@H](Cc1ncco1)c1nnc(C)n1-2 [I-233] | > 3 | < 0.5 |  | 
13 | < 0.5 | < 0.5 |  |  | Cc1sc2c(c1C)C(c1ccc(C[C@H]3CC[C@@]4(C3)CN(c3ccc(C(=O)N[C@H]5CC[C@H](Oc6ccc(C#N)c(Cl)c6)CC5)nn3)CCO4)cc1)=N[C@@H](Cc1ncco1)c1nnc(C)n1-2 [I-267] | < 0.5 | < 0.5 |  | 
14 | > 3 | < 0.5 |  |  | Cc1sc2c(c1C)C(c1ccc(CN(C)C(=O)NCc3ccc(C(=O)N[C@H]4CC[C@H](Oc5ccc(C#N)c(Cl)c5)CC4)nn3)cc1)=N[C@@H](Cc1ncco1)c1nnc(C)n1-2 [I-318] | > 3 | < 0.5 |  | 
15 | 1.5 to 3 | 1.5 to 3 |  |  | Cc1sc2c(c1C)C(c1ccc([C@H]3C[C@@H](C[C@@H]4CCCN(c5ccc(C(=O)N[C@H]6CC[C@H](Oc7ccc(C#N)c(Cl)c7)CC6)nn5)C4)C3)cc1)=N[C@@H](Cc1ncco1)c1nnc(C)n1-2 [I-355] | > 3 | > 3 |  | 
16 | < 0.5 | < 0.5 |  |  | Cc1sc2c(c1C)C(c1ccc(CC[C@@H]3CC[C@@]4(CCCN(c5ccc(C(=O)N[C@H]6CC[C@H](Oc7ccc(C#N)c(Cl)c7)CC6)nn5)C4)C3)cc1)=N[C@H](Cc1ncco1)c1nnc(C)n1-2 [I-216] | < 0.5 | < 0.5 |  | 
17 | 0.5 to 1.5 | > 3 |  |  | Cc1sc2c(c1C)C(c1ccc(C(=O)N3CCC(Cc4ccc(C(=O)N[C@H]5CC[C@H](Oc6ccc(C#N)c(Cl)c6)CC5)nn4)CC3)cc1)=N[C@@H](Cc1ncco1)c1nnc(C)n1-2 [I-240] | > 3 | < 0.5 |  | 
18 | 0.5 to 1.5 | < 0.5 |  |  | CCNC(=O)C[C@@H]1N=C(c2ccc(N3CCC(CN4CCN(c5ccc(C(=O)N[C@H]6CC[C@H](Oc7ccc(C#N)c(Cl)c7)CC6)nn5)CC4)CC3)cc2)c2c(sc(C)c2C)-n2c(C)nnc21 [I-36] | 0.5 to 1.5 | < 0.5 |  | 
19 | < 0.5 | < 0.5 |  |  | CCNC(=O)C[C@@H]1N=C(c2ccc(OC3CC(OC4CCN(c5ccc(C(=O)N[C@H]6CC[C@H](Oc7ccc(C#N)c(Cl)c7)CC6)nn5)CC4)C3)cc2)c2c(sc(C)c2C)-n2c(C)nnc21 (stereo partly drawn) [I-37] | < 0.5 | < 0.5 |  | 
20 | < 0.5 | < 0.5 |  |  | Cc1sc2c(c1C)C(c1ccc(C[C@H]3CC[C@]4(CCCN(c5ccc(C(=O)N[C@H]6CC[C@H](Oc7ccc(C#N)c(Cl)c7)CC6)nn5)C4)C3)cc1)=N[C@@H](Cc1ncco1)c1nnc(C)n1-2 [I-124] | < 0.5 | < 0.5 |  | 
21 | < 0.5 | 0.5 to 1.5 |  |  | Cc1sc2c(c1C)C(c1ccc([C@H]3C[C@@H](C4CC5(CCN(c6ccc(C(=O)N[C@H]7CC[C@H](Oc8ccc(C#N)c(Cl)c8)CC7)nn6)CC5)C4)C3)cc1)=N[C@H](Cc1ncco1)c1nnc(C)n1-2 [I-382] | > 3 | < 0.5 |  | 
22 | 1.5 to 3 | 1.5 to 3 |  |  | Cc1sc2c(c1C)C(c1ccc(C[C@H]3CC[C@@]4(CCCN(c5ccc(C(=O)N[C@H]6CC[C@H](Oc7ccc(C#N)c(Cl)c7)CC6)nn5)C4)C3)cc1)=N[C@@H](Cc1ncco1)c1nnc(C)n1-2 [I-123] | > 3 | 1.5 to 3 |  | 
23 | 0.5 to 1.5 | < 0.5 |  |  | Cc1sc2c(c1C)C(c1ccc(CC3CC4(CCCN(c5ccc(C(=O)N[C@H]6CC[C@H](Oc7ccc(C#N)c(Cl)c7)CC6)nn5)C4)C3)cc1)=N[C@@H](C)c1nnc(C)n1-2 (stereo partly drawn) [I-338] | > 3 | < 0.5 |  | 
24 | 0.5 to 1.5 | < 0.5 |  |  | Cc1sc2c(c1C)C(c1ccc(OC[C@H]3C[C@@]4(CCCN(c5ccc(C(=O)N[C@H]6CC[C@H](Oc7ccc(C#N)c(Cl)c7)CC6)nn5)C4)C3)cc1)=N[C@@H](C)c1nnc(C)n1-2 [I-310] | > 3 | < 0.5 |  | 
25 | < 0.5 | < 0.5 |  |  | Cc1sc2c(c1C)C(c1ccc(OC3CN(C4CCN(c5ccc(C(=O)N[C@H]6CC[C@H](Oc7ccc(C#N)c(Cl)c7)CC6)nn5)C4)C3)cc1)=N[C@@H](Cc1ncco1)c1nnc(C)n1-2 (stereo partly drawn) [I-101] | < 0.5 | < 0.5 |  | 
26 | > 3 | > 3 |  |  | Cc1sc2c(c1C)C(c1ccc(C(=O)N3CCN(Cc4ccc(C(=O)N[C@H]5CC[C@H](Oc6ccc(C#N)c(Cl)c6)CC5)nn4)CC3)cc1)=N[C@@H](Cc1ncco1)c1nnc(C)n1-2 [I-290] | > 3 | > 3 |  | 
27 | < 0.5 | < 0.5 |  |  | Cc1sc2c(c1C)C(c1ccc(O[C@H]3CC[C@@]4(CCCN(c5ccc(C(=O)N[C@H]6CC[C@H](Oc7ccc(C#N)c(Cl)c7)CC6)nn5)C4)C3)cc1)=N[C@@H](Cc1ncco1)c1nnc(C)n1-2 [I-96] | < 0.5 | < 0.5 |  | 
28 |  |  | < 0.5 | < 0.5 | Cc1sc2c(c1C)C(c1ccc(N3CCC4(CC3)CC(Cc3ccc(C(=O)N[C@H]5CC[C@H](Oc6ccc(C#N)c(Cl)c6)CC5)nn3)C4)cc1)=NC(Cc1ncco1)c1nnc(C)n1-2 (stereo partly drawn) [I-416] |  |  | 0.5 to 1.5 | < 0.5
29 |  |  | > 3 | > 3 | Cc1sc2c(c1C)C(c1ccc(CCC3CCC4CN(c5ccc(C(=O)N[C@H]6CC[C@H](Oc7ccc(C#N)c(Cl)c7)CC6)nn5)CCN4C3)cc1)=NC(Cc1ncco1)c1nnc(C)n1-2 (stereo partly drawn) [I-402] |  |  | > 3 | < 0.5
30 | < 0.5 | < 0.5 |  |  | Cc1sc2c(c1C)C(c1ccc(CCCC3CCCN(c4ccc(C(=O)N[C@H]5CC[C@H](OC6CCC(C#N)C(Cl)C6)CC5)nn4)CC3)cc1)=N[C@@H](Cc1ncco1)c1nnc(C)n1-2 (stereo partly drawn) [I-396] | < 0.5 | < 0.5 |  | 
